Measured values as given in paper PMC7914117, “Ginkgolic acid and anacardic acid are specific covalent inhibitors of SARS-CoV-2 cysteine proteases” (Cell & Bioscience, 2021).

Key:
Vero-E6 cells = assay: Cell-Titer Glo cytotoxicity assay; format: cell-based; conditions: 48 h, mean ± SD, triplicate
Procedure: (§1) To estimate the cytotoxicity of test compounds on VERO-E6 cells, Cell-Titer Glo® luminescent cell viability assay (Promega) was performed according to the manufacturer’s instruction. […] The half of the cytotoxic concentration (CC50) values were calculated from the percentages of cells whose viability was inhibited by test compounds at various concentrations.

[1] = Cell-Titer Glo cytotoxicity assay; format: cell-based; conditions: African green monkey, Vero-E6 cells; for CC50 at 48 h: mean ± SD, triplicate; for viability at 48 h, 20 µM: at 20 µM
Procedure: as §1

SARS-CoV-2 PL^pro = SARS-CoV-2 PL^pro (Severe acute respiratory syndrome coronavirus 2, UniProt P0DTD1); assay: SARS-CoV-2 PLpro fluorescence-based enzymatic inhibition assay (Z-RLRGG-AMC substrate); format: biochemical; conditions: for IC50: mean ± SD, triplicate, read-out: IC50 against PL^pro enzymatic activity; for inhibition at 20 µM: read-out: inhibition against PL^pro in high-throughput screen
SARS-CoV-2 3CL^pro = SARS-CoV-2 3CL^pro (Severe acute respiratory syndrome coronavirus 2, UniProt P0DTD1); assay: SARS-CoV-2 3CLpro FRET enzymatic inhibition assay; format: biochemical; conditions: for IC50: 250 nM 3CLpro, 4 mM DTT, 30 min pre-incubation, 50 µM substrate, mean ± SD, triplicate, read-out: IC50 against 3CL^pro enzymatic activity; for IC50 shift upon addition of reducing reagent: 3CLpro assay in absence or presence of 4 mM DTT; for sensitivity of 3CLpro compared to PLpro: ratio of IC50 values, PLpro vs 3CLpro
Procedure: The SARS-CoV-2 3CL^pro was prokaryotic expressed and purified as previously described with slight modification. For enzymatic inhibition assay, the recombinant 3CL^pro (250 nM at a final concentration) was incubated with increasing concentrations of each compound in 90 µL reaction buffer (50 mM Tris–HCl, pH 7.3, 1 mM EDTA, 4mM DTT) for 30 min [6]. The reaction was initiated by adding 10 µL FRET-based peptidic substrate (Dabcyl-KTSAVLQ/SGFRKME-Edans) with a final concentration of 50 µM. The fluorescence signal was immediately measured every 20 s for 30 min using a Bio-Tek Synergy4 plate reader with filters for excitation at 336/20 nm and emission at 490/20 nm. The V0 of reactions were calculated to indicate the enzymatic activities. Three independent experiments were performed and IC50 curves were analyzed using four-parameter logistic regression in GraphPad Prism software.
For mechanism of action study, various concentrations of ginkgolic acid were mixed and incubated with increasing concentrations of 3CL^pro (100–1000 nM) in 90 µL reaction buffer for 30 min. Reactions were initiated by adding 10 µL substrate with a final concentration of 50 µM. At each concentration of ginkgolic acid, the V0s were plotted with the concentrations of 3CL^pro, and the data was fitted using linear regression analysis in GraphPad Prism software.

[2] = 100 nM PLpro, 4 mM DTT, 30 min pre-incubation, 30 µM substrate
[3] = compounds at 20 µM, 100 nM PLpro, 30 min pre-incubation, 4 mM DTT, 30 µM substrate, RFU at 10 min

SMILES | CC10 (Vero-E6 cells) [µM] | CC50 at 48 h [1] [µM] | viability at 48 h, 20 µM [1] [%] | IC50 (SARS-CoV-2 PL^pro; [2]) [µM] | inhibition at 20 µM (SARS-CoV-2 PL^pro; [3]) [%] | IC50 (SARS-CoV-2 3CL^pro) [µM] | IC50 shift upon addition of reducing reagent (SARS-CoV-2 3CL^pro) | sensitivity of 3CLpro compared to PLpro (SARS-CoV-2 3CL^pro) | type of enzymatic inhibition of PL^pro (SARS-CoV-2 PL^pro; V0 vs enzyme concentration (25–150 nM) at different inhibitor concentrations) | type of enzymatic inhibition of 3CL^pro (SARS-CoV-2 3CL^pro; V0 vs enzyme concentration (100–1000 nM) at different inhibitor concentrations) | inhibition against PL^pro in high-throughput screen (SARS-CoV-2 PL^pro; [3])
CCCCCCCCCCCCCCCc1cccc(O)c1C(=O)O [anacardic acid] | 22.27 ± 0.26 | 25.5 ± 0.69 | > 90 | 17.1 ± 1.3 | > 50 | 2.07 ± 0.35 | no significant IC50 shift | about 10 times | – | – | –
CCCCCC/C=C\CCCCCCCc1cccc(O)c1C(=O)O [ginkgolic acid] | 21.38 ± 0.52 | 27.9 ± 0.77 | > 90 | 16.3 ± 0.64 | > 50 | 1.79 ± 0.58 | no significant IC50 shift | about 10 times | irreversible inhibitor | irreversible inhibitor | –
C/C1=C2/[N-][C@H]([C@H](CC(N)=O)[C@@]2(C)CCC(=O)NC[C@@H](C)OP(=O)([O-])O[C@H]2[C@@H](O)[C@@H](n3cnc4cc(C)c(C)cc43)O[C@@H]2CO)[C@]2(C)N=C(/C(C)=C3N=C(/C=C4N=C1[C@@H](CCC(N)=O)C\4(C)C)[C@@H](CCC(N)=O)[C@]\3(C)CC(N)=O)[C@@H](CCC(N)=O)[C@]2(C)CC(N)=O.[CH3-].[Co+3] [methylcobalamin, reference compound] | – | – | – | – | – | – | – | – | – | – | more than 50%
